# Experimental data reported in patent US20190125772A1, “IMPROVED DRUG COMBINATIONS FOR DRUG-RESISTANT AND DRUG-SENSITIVE MULTIPLE MYELOMA” (priority 2015, published 2019).
# Columns and labels:
# [1] = test system: RPMI 8226 (Bortezomib-sensitive) versus THLE-2 healthy control cells; assay: FSC in vitro cellular assay, output = cell viability of THLE-2 minus cell viability of RPMI 8226, with linear regression and response surface maps; type: cell-based; conditions: for drug candidate assessment from two-drug interaction terms: first iteration, interaction coefficients with desirable candidates
# From the text: This is expressed as a therapeutic window (% Output) that is the difference in percentage (%) viability between treated multiple myeloma and THLE-2 cells.
# [2] = test system: Bortezomib-sensitive RPMI 8226 multiple myeloma cells; assay: Inhibitory concentrations (ICx, inhibition of cell growth) of the drugs in FSC-derived optimal combinations, Bortezomib-sensitive multiple myeloma; type: cell-based; conditions: concentration of the single drug as used in optimal combinations
# From the text: FIG. 8: Table showing the design of three iterations. IC20 represents 20% inhibitory concentration, which is the dosage of drug for 20% inhibition of cell growth. The first and second iterations are drug screening experiments to remove unfavorable drug candidates.
# FIG. 14: Multi-drug optimization experimental assessment of prescribed combinations and output. […] The calculated y from the equation (FIG. 13) is the output as shown here.
# In each iteration (experiment run), a list of drug combinations used is based on an experimental design methodology that aims to reduce the number of experiments to obtain sufficient information to build a mathematical equation.
# After the list of drug combinations is determined, the drug combinations are applied to an in vitro cellular assay. A healthy control cell (THLE-2) is used to determine liver toxicity caused by drug treatment. Drug efficacy is determined using the B lymphocyte cancer cell (RPMI 8226). Favorable drug combinations would maximize cancer cell killing while minimizing health cell death. […] The experiments are conducted in a rapid, high-throughput manner using an automated liquid handler machine.
structure (smiles),measurement,setting,value
"CC(C)C[C@H](NC(=O)[C@H](CCc1ccccc1)NC(=O)CN1CCOCC1)C(=O)N[C@@H](Cc1ccccc1)C(=O)N[C@@H](CC(C)C)C(=O)[C@@]1(C)CO1 [Carfilzomib, (2S)-N-((S)-1-((S)-4-methyl-1-((R)-2-methyloxiran-2-yl)-1-oxopentan-2-ylcarbamoyl)-2-phenylethyl)-2-((S)-2-(2-morpholinoacetamido)-4-phenylbutanamido)-4-methylpentanamide]",effect of presence or absence of the drug on the output,"[1]; third iteration, other four drugs kept at 100%",does not change the output
O.O=P1(N(CCCl)CCCl)NCCCO1 (stereo not shown) [Cyclophoshamide monohydrate],drug candidate assessment from two-drug interaction terms,[1]; first attempt,can be eliminated
same,drug candidate assessment from two-drug interaction terms,[1]; second attempt,can be eliminated
"Nc1ncn([C@H]2C[C@H](O)[C@@H](CO)O2)c(=O)n1 [Decitabine, 5-aza-2′-deoxycytidine]",drug candidate assessment from two-drug interaction terms,[1]; first attempt,can be eliminated
CO[C@@]12[C@H](COC(N)=O)C3=C(C(=O)C(C)=C(N)C3=O)N1C[C@@H]1N[C@@H]12 [Mitomycin C],drug candidate assessment from two-drug interaction terms,[1]; second attempt,can be eliminated
"Cc1[nH]c2ccccc2c1CCNCc1ccc(/C=C/C(=O)NO)cc1 [Panobinostat, (2E)-N-hydroxy-3-[4-({[2-(2-methyl-1H-indol-3-yl)ethyl]amino}methyl)phenyl]acrylamide]",IC8.75,[2],~0.0003239 µM
same,IC17.5,[2],~0.0005905 µM
same,IC26.25,[2],~0.0008734 µM
same,IC35,[2],~1.195 nM
same,IC8.75,[2]; listed as Panobinostal,IC8.75/[3.239E−4 μM]
same,IC17.5,[2]; listed as Panobinostal,IC17.5/[5.905E−4 μM]
same,IC26.25,[2]; listed as Panobinostal,IC26.25/[8.734E−4 μM]
same,IC35,[2]; listed as Panobinostal,IC35/[1.195E−3 μM]
